In ChEMBL document CHEMBL1201862, “PubChem BioAssay data set” (2004):
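Each compound was tested at five concentrations against cells in 96-well plates for 48 hours. GI50 is the concentration that inhibits growth by half.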 Calls of active or inactive are those of the source. Rule as the data show it: active = GI50 up to about 1.1 µM and inactive = higher. Positions of bridges follow the written chain, without caps; N, C: chain ends. Residues, ends and D or L forms follow the SMILES beside them.

Tests used:
Experiment in all cases: inhibition of tumour cell growth, NCI panel, 48 h
LOX IMVI = system: LOX IMVI
OVCAR-3 = system: OVCAR-3
HOP-62 = system: HOP-62
NCI/ADR-RES = system: NCI/ADR-RES
HOP-92 = system: HOP-92
HCT-116 = system: HCT-116
MCF7 = system: MCF7
MDA-MB-435 = system: MDA-MB-435
DU-145 = system: DU-145
EKVX = system: EKVX
SK-MEL-28 = system: SK-MEL-28
NCI-H23 = system: NCI-H23
SNB-75 = system: SNB-75
SNB-19 = system: SNB-19
OVCAR-8 = system: OVCAR-8
PC-3 = system: PC-3
IGROV-1 = system: IGROV-1
SK-MEL-5 = system: SK-MEL-5
SF-268 = system: SF-268
RXF 393 = system: RXF 393

Structure (SMILES) | GI50 (LOX IMVI) | GI50 (OVCAR-3) | GI50 (HOP-62) | GI50 (NCI/ADR-RES) | GI50 (HOP-92) | GI50 (HCT-116) | GI50 (MCF7) | GI50 (MDA-MB-435) | GI50 (DU-145) | GI50 (EKVX) | GI50 (SK-MEL-28) | GI50 (NCI-H23) | GI50 (SNB-75) | GI50 (SNB-19) | GI50 (OVCAR-8) | GI50 (PC-3) | GI50 (IGROV-1) | GI50 (SK-MEL-5) | GI50 (SF-268) | GI50 (RXF 393)
Nc1cc(N2CCOCC2)nc(=O)n1-c1ccccc1 | > 100 µM (inactive) | > 100 µM (inactive) | > 100 µM (inactive) | > 100 µM (inactive) | > 100 µM (inactive) | > 100 µM (inactive) | > 100 µM (inactive) | > 100 µM (inactive) | > 100 µM (inactive) | > 100 µM (inactive) | > 100 µM (inactive) | > 100 µM (inactive) | > 100 µM (inactive) | > 100 µM (inactive) | > 100 µM (inactive) | > 100 µM (inactive) | > 100 µM (inactive) | > 100 µM (inactive) | – | –
CC(C)(C)OC(=O)NCC(=O)NC1C/C(=N\O)c2sccc21 (stereo unspecified) | > 100 µM (inactive) | > 100 µM (inactive) | > 100 µM (inactive) | > 100 µM (inactive) | – | > 100 µM (inactive) | > 100 µM (inactive) | > 100 µM (inactive) | > 100 µM (inactive) | > 100 µM (inactive) | > 100 µM (inactive) | > 100 µM (inactive) | > 100 µM (inactive) | > 100 µM (inactive) | > 100 µM (inactive) | > 100 µM (inactive) | > 100 µM (inactive) | > 100 µM (inactive) | > 100 µM (inactive) | > 100 µM (inactive)
COC(=O)C1CCC(=O)NCCCCC(NC(=O)C(N)CC(=O)O)C(=O)N1 (stereo not drawn) (H-Asp-Lys-Glu-OMe; lactam 2-3; configuration not given here) | > 100 µM (inactive) | > 100 µM (inactive) | > 100 µM (inactive) | > 100 µM (inactive) | – | 60 µM (inactive) | 62.7 µM (inactive) | > 100 µM (inactive) | > 100 µM (inactive) | > 100 µM (inactive) | > 100 µM (inactive) | 92.5 µM (inactive) | 88.7 µM (inactive) | > 100 µM (inactive) | > 100 µM (inactive) | > 100 µM (inactive) | > 100 µM (inactive) | > 100 µM (inactive) | > 100 µM (inactive) | > 100 µM (inactive)
NC(=O)CCC(NC(=O)c1cccc2c(=O)c3ccccc3[nH]c12)C(=O)O (stereo unspecified) | > 100 µM (inactive) | > 100 µM (inactive) | > 100 µM (inactive) | > 100 µM (inactive) | 77.3 µM (inactive) | > 100 µM (inactive) | > 100 µM (inactive) | > 100 µM (inactive) | > 100 µM (inactive) | > 100 µM (inactive) | > 100 µM (inactive) | > 100 µM (inactive) | > 100 µM (inactive) | > 100 µM (inactive) | > 100 µM (inactive) | > 100 µM (inactive) | > 100 µM (inactive) | > 100 µM (inactive) | > 100 µM (inactive) | –
COc1ccc(N2C(=O)C3c4[nH]c5ccc(Br)cc5c4C4CCC(C(C)(C)C)CC4C3C2=O)cc1 (stereo unspecified) | > 100 µM (inactive) | > 100 µM (inactive) | > 100 µM (inactive) | > 100 µM (inactive) | – | > 100 µM (inactive) | > 100 µM (inactive) | > 100 µM (inactive) | > 100 µM (inactive) | > 100 µM (inactive) | > 100 µM (inactive) | > 100 µM (inactive) | – | > 100 µM (inactive) | > 100 µM (inactive) | > 100 µM (inactive) | > 100 µM (inactive) | > 100 µM (inactive) | > 100 µM (inactive) | > 100 µM (inactive)
O=c1c2cccnc2cc(-c2ccccc2)n1CCO | > 100 µM (inactive) | > 100 µM (inactive) | > 100 µM (inactive) | > 100 µM (inactive) | – | > 100 µM (inactive) | > 100 µM (inactive) | > 100 µM (inactive) | > 100 µM (inactive) | > 100 µM (inactive) | > 100 µM (inactive) | > 100 µM (inactive) | > 100 µM (inactive) | > 100 µM (inactive) | > 100 µM (inactive) | > 100 µM (inactive) | > 100 µM (inactive) | > 100 µM (inactive) | 59.2 µM (inactive) | > 100 µM (inactive)
COc1cccc(/C=C2\S/C(=N/Nc3nc(C)c(C)s3)NC2=O)c1O | 95.7 µM (inactive) | 87.1 µM (inactive) | > 100 µM (inactive) | > 100 µM (inactive) | > 100 µM (inactive) | > 100 µM (inactive) | > 100 µM (inactive) | > 100 µM (inactive) | > 100 µM (inactive) | 37 µM (inactive) | > 100 µM (inactive) | > 100 µM (inactive) | > 100 µM (inactive) | > 100 µM (inactive) | 36.6 µM (inactive) | – | 34.3 µM (inactive) | 50.2 µM (inactive) | > 100 µM (inactive) | 79.4 µM (inactive)
O=C1c2cc3c(cc2CC1Br)CCC3 (stereo unspecified) | 0.369 µM (active) | 2.03 µM (inactive) | 13.8 µM (inactive) | 4.14 µM (inactive) | – | 1.53 µM (inactive) | 2.07 µM (inactive) | 1.99 µM (inactive) | 16 µM (inactive) | 14.6 µM (inactive) | 3.1 µM (inactive) | 3 µM (inactive) | 2.93 µM (inactive) | 12.4 µM (inactive) | 1.98 µM (inactive) | 3.28 µM (inactive) | 2.86 µM (inactive) | 1.18 µM (inactive) | 4.41 µM (inactive) | 1.83 µM (inactive)
S=C1c2ccc(Cl)cc2-n2cnnc2C2CSCN12 (stereo unspecified) | > 100 µM (inactive) | > 100 µM (inactive) | > 100 µM (inactive) | > 100 µM (inactive) | – | 62.5 µM (inactive) | > 100 µM (inactive) | 95.1 µM (inactive) | > 100 µM (inactive) | > 100 µM (inactive) | > 100 µM (inactive) | – | > 100 µM (inactive) | > 100 µM (inactive) | > 100 µM (inactive) | > 100 µM (inactive) | > 100 µM (inactive) | > 100 µM (inactive) | > 100 µM (inactive) | > 100 µM (inactive)
COc1ccc(-c2cc(-c3ccco3)c(C#N)c(=S)n2C2OC(CO)C(O)C(O)C2O)cc1 (stereo unspecified) | 50.4 µM (inactive) | 49.7 µM (inactive) | > 100 µM (inactive) | > 100 µM (inactive) | – | > 100 µM (inactive) | 58.6 µM (inactive) | > 100 µM (inactive) | > 10 µM (inactive) | > 100 µM (inactive) | > 100 µM (inactive) | > 100 µM (inactive) | > 100 µM (inactive) | > 100 µM (inactive) | > 100 µM (inactive) | > 100 µM (inactive) | 92.3 µM (inactive) | 44.7 µM (inactive) | > 100 µM (inactive) | > 100 µM (inactive)
Cc1cccc(NC(=S)Nc2ccccc2Cl)n1 | > 100 µM (inactive) | > 100 µM (inactive) | 22.3 µM (inactive) | 49 µM (inactive) | – | > 100 µM (inactive) | > 100 µM (inactive) | > 100 µM (inactive) | > 100 µM (inactive) | 21.9 µM (inactive) | > 100 µM (inactive) | – | 19.3 µM (inactive) | 25.1 µM (inactive) | 29.6 µM (inactive) | > 100 µM (inactive) | 30.1 µM (inactive) | 27.9 µM (inactive) | 28.7 µM (inactive) | 20.7 µM (inactive)
O=C1c2ccccc2C(=O)N1CC(O)COc1cccc2ccccc12 (stereo unspecified) | > 100 µM (inactive) | > 100 µM (inactive) | > 100 µM (inactive) | > 100 µM (inactive) | – | > 100 µM (inactive) | > 100 µM (inactive) | > 100 µM (inactive) | > 100 µM (inactive) | > 100 µM (inactive) | > 100 µM (inactive) | – | – | > 100 µM (inactive) | > 100 µM (inactive) | > 100 µM (inactive) | > 100 µM (inactive) | 63.5 µM (inactive) | 85.3 µM (inactive) | –
O=C(CNc1ccccc1C(=O)O)Nn1cnc2ccc(S(=O)(=O)Nc3ccccc3C(=O)O)cc2c1=O | > 100 µM (inactive) | > 100 µM (inactive) | > 100 µM (inactive) | > 100 µM (inactive) | > 100 µM (inactive) | > 100 µM (inactive) | > 100 µM (inactive) | > 100 µM (inactive) | > 100 µM (inactive) | > 100 µM (inactive) | > 100 µM (inactive) | > 100 µM (inactive) | > 100 µM (inactive) | > 100 µM (inactive) | > 100 µM (inactive) | > 100 µM (inactive) | > 100 µM (inactive) | – | > 100 µM (inactive) | –
SC1=NC2=C(CSC/C2=C\c2ccccc2)C(c2ccccc2)N1 (stereo unspecified) | 38.1 µM (inactive) | > 100 µM (inactive) | > 100 µM (inactive) | 47.5 µM (inactive) | 37.6 µM (inactive) | 29.5 µM (inactive) | 30.9 µM (inactive) | – | 95.1 µM (inactive) | 45.5 µM (inactive) | > 100 µM (inactive) | 31.9 µM (inactive) | – | 39.6 µM (inactive) | 42.2 µM (inactive) | 34.4 µM (inactive) | > 100 µM (inactive) | 12.1 µM (inactive) | 64.6 µM (inactive) | 27.9 µM (inactive)
CN1C(=O)N(C)C2(CCN(CCCCCCF)CC2)C1=O | > 100 µM (inactive) | > 100 µM (inactive) | > 100 µM (inactive) | > 100 µM (inactive) | – | > 100 µM (inactive) | > 100 µM (inactive) | 26 µM (inactive) | > 100 µM (inactive) | > 100 µM (inactive) | > 100 µM (inactive) | > 100 µM (inactive) | > 100 µM (inactive) | > 100 µM (inactive) | > 100 µM (inactive) | > 100 µM (inactive) | > 100 µM (inactive) | > 100 µM (inactive) | > 100 µM (inactive) | > 100 µM (inactive)
